# Test results published in publication PMC12118597 (Science Advances, 2025).
# Several values for one entry are separate records, joined by “and”; a condition that tells them apart may be missing. Equal values may be shown once. Read-outs that look alike come from different tables or passages of the source.
# Experiments:
# [1] = molecular target: T1, SARS-CoV-2 NSP3 macrodomain (Mac1) (Severe acute respiratory syndrome coronavirus 2, UniProt P0DTD1); assay: biochemical; type: binding; settings: for detectable binding at 200 μM in the HTRF assay: result in words
# [2] = molecular target: T1, SARS-CoV-2 NSP3 macrodomain (Mac1); type: binding; settings: for PanDDA run, overall: Hit / PanDDA run, overall: Modeled / PanDDA run, DMSO background map: 1-BDC / PanDDA run, DMSO background map: Hit / Hit (PanDDA run, DMSO background map) / 1-BDC (PanDDA run, DMSO background map): crystal soak 10 mM; for PanDDA run, overall: Hit / PanDDA run, overall: Modeled / Hit (PanDDA run, overall): P43 crystal form; for Total number of conformations: ligand conformations modeled in the crystal structure; for 2*(1-BDC) (%): occupancy estimate from PanDDA; for 1-BDC (PanDDA run, DMSO background map): event 1; for Hit (PanDDA run, overall): crystal soak, 10 mM soak concentration
# [3] = HTRF binding curve, SARS-CoV-2 Mac1
# [4] = SARS CoV-2 macrodomain HTRF assay, dose-response
# [5] = PanDDA background density correction factor
# [6] = TRUE = crystal structure with ligand obtained
# [7] = refined crystallographic occupancy
# [8] = site of ligand in X-ray crystal structure
# [9] = SARS CoV-2 macrodomain HTRF assay, single dose concentration 200 μM, read-out: Average % competition
# [10] = compound at 200 μM, mean of three to four technical replicates, read-out: % competition at 200 μM (preliminary HTRF screen)
# [11] = ligand-bound crystal structure obtained (TRUE)
# [12] = site occupied in X-ray crystal structure
# [13] = PanDDA background density correction, 1-BDC
SMILES,"Hill slope [1, 3]","Hill slope [1, 4]",Occupancy difference (refined_occupancy - 2*(1-BDC)) [2],"1-BDC [2, 5]","X-ray crystal structure [2, 6]","PanDDA run, overall: Hit [2]","PanDDA run, overall: Modeled [2]","PanDDA run, DMSO background map: 1-BDC [2]","PanDDA run, DMSO background map: Hit [2]",Total number of conformations [2],2*(1-BDC) (%) [2],"Refined ligand occupancy (%) [2, 7]","Binding site [2, 8]","X-ray crystal structure [2, 11]","Binding site [2, 12]",other results
O=C(O)C(F)(F)F.OCC1(Nc2ncnc3[nH]ccc23)CCC1 [AVI-3670],1.2,1.2,0,0.18,TRUE,TRUE,TRUE,0.18,TRUE,2,36%,36%,Adenosine,,,
CN(C)CC(CO)Nc1ncnc2[nH]ccc12 (stereo not shown) [AVI-3671],,,0,0.17,TRUE,TRUE,TRUE,0.17,TRUE,1,34%,34%,Adenosine,,,detectable binding at 200 μM in the HTRF assay [1]: neither had detectable binding
OCC(CN1CCCCC1)Nc1ncnc2[nH]ccc12 (stereo not shown) [AVI-3677],,,0,0.21,TRUE,TRUE,TRUE,0.21,TRUE,1,42%,42%,Adenosine,,,detectable binding at 200 μM in the HTRF assay [1]: neither had detectable binding
O=C(O)C(F)(F)F.OCC1(Nc2ncnc3[nH]ccc23)CCCC1 [AVI-3692],1.3,1.3,-24,0.22,TRUE,TRUE,TRUE,0.22,TRUE,1,44%,20%,Adenosine,,,
CCC(CC)(CO)Nc1ncnc2[nH]ccc12 [AVI-3695],1.3,1.3,6,0.12,TRUE,TRUE,TRUE,0.12,TRUE,2,24%,30%,Adenosine,,,
CCC(C)(CO)Nc1ncnc2[nH]ccc12 (stereo not shown) [AVI-3697],1.2,1.2,18,0.16,TRUE,TRUE,TRUE,0.16,TRUE,1,32%,50%,Adenosine,,,
CC1(C)C[C@@H](CO)N(c2ncnc3[nH]ccc23)C1.O=C(O)C(F)(F)F [AVI-3704],1.1,1.1,0,0.33,,TRUE,,0.33,TRUE,1,66%,66%,,TRUE,Adenosine,"inhibition at 200 µM [1, 9]: 90%; inhibition at 200 µM [1, 10]: 90%"
OCC1CC2(CCCC2)CN1c1ncnc2[nH]ccc12 (stereo not shown) [AVI-3708],1.1,1.1,0,0.32,,TRUE,,0.32,TRUE,1,64%,64%,,TRUE,Adenosine,"inhibition at 200 µM [1, 9]: 90%; inhibition at 200 µM [1, 10]: 90%"
OCC1C2CCC(C2)N1c1ncnc2[nH]ccc12 (stereo not shown) [AVI-3713],1.1,1.1,0,0.29,,TRUE,,0.29,TRUE,1,58%,58%,,TRUE,Adenosine,
OC[C@@H]1C[C@@H]2CCC[C@@H]2N1c1ncnc2[nH]ccc12 [AVI-3720],1.2,1.2,0,0.29,,TRUE,,0.29,TRUE,1,58%,58%,,TRUE,Adenosine,Phe132 loop open state [2]: TRUE
O=C(O)C(F)(F)F.OC1([C@H]2CCCN2c2ncnc3[nH]ccc23)Cc2ccccc2C1 [AVI-3731],1.1,1.1,0,0.2,,TRUE,,0.2,TRUE,1,40%,40%,,TRUE,Adenosine,"inhibition at 200 µM [1, 9]: 100%; inhibition at 200 µM [1, 10]: 100%"
OCCC(CO)Nc1ncnc2[nH]ccc12 (stereo not shown) [AVI-3734],1.2,1.2,0,0.25,TRUE,TRUE,,0.25,TRUE,1,50%,50%,Adenosine,,,
CC(O)C1CCCN1c1ncnc2[nH]ccc12 (stereo not shown) [AVI-4062],1.1,1.1,,,,,,,,,52%,,,TRUE,Adenosine,"1-BDC [2, 13]: 0.26; Hit (PanDDA run, DMSO background map) [2]: TRUE; 1-BDC (PanDDA run, DMSO background map) [2]: 0.26 and 0.29; Hit (PanDDA run, overall) [2]: TRUE; Refined ligand occupancy (%) ([2]; crystallographic refinement): 70%"
C[C@H]1CC[C@H](CO)N(c2ncnc3[nH]ccc23)C1 [AVI-4063],1.1,1.1,,,,,,,,,32%,,,TRUE,Adenosine,"1-BDC [2, 13]: 0.16; Hit (PanDDA run, DMSO background map) [2]: TRUE; 1-BDC (PanDDA run, DMSO background map) [2]: 0.21 and 0.16; Hit (PanDDA run, overall) [2]: TRUE; Refined ligand occupancy (%) ([2]; crystallographic refinement): 50%"
